According to US9801940B2, “Oral care compositions” (Colgate-Palmolive Company, priority 2010, dated 2017):

System: representative oral bacteria S. mutans, F. nucleatum, V. parvula, A. naslundii, P. gingivitis
Experiment: Bactericidal properties in in vitro tests
Format: cell-based
From the text: As referred to herein, the expressions “extract of magnolia” or “magnolia extract” denote an extract from dried cortex, or bark, of a plant from the Magnoliaceae family, such as Magnolia officinalis, (hereinafter “magnolia”), or a synthetic or semi-synthetic equivalent of such an extract or an active component thereof. […] In other embodiments, the oral composition comprises an extract of magnolia. […] It should be noted that any plant from the Magnoliaceae family is suitable for extracting the active ingredients used in the present embodiment.

SMILES	bactericidal properties against representative oral bacteria
C=CCc1ccc(O)c(-c2ccc(O)c(CC=C)c2)c1 [honokiol]	demonstrated bactericidal properties
C=CCc1ccc(O)c(-c2cc(CC=C)ccc2O)c1 [magnolol]	demonstrated bactericidal properties
CCCc1ccc(O)c(-c2ccc(O)c(CCC)c2)c1 [tetrahydrohonokiol, 3′,5-dipropylbiphenyl-2,4′-diol]	demonstrated bactericidal properties
CCCc1ccc(O)c(-c2cc(CCC)ccc2O)c1 [tetrahydromagnolol, 5,5′-dipropylbiphenyl-2,2′-diol]	demonstrated bactericidal properties
